{"source": "patent US6821735B1", "about": "“Protein involved in abscisic acid signalling” (Plant BioScience Limited, priority 1997, dated 2004)", "molecules": {"B1": {"name": "Sp2: truncated Nt-Syr protein, amino acids 1-279 of SEQ ID NO:2, N-His-tagged (protein, listed as Nicotiana tabacum)", "chain": "MNDLFSGSFSRFRADDQSDSHAIEMGDITGGVNLDKFFEDVEAIKDELKGLEKIYSQLQSSHEKSKTLHNAKAVKDLRSNMDNDVSMALKKAKFIKVRLEALDRSNAANRSLPGCGPGSSSDRTRTSVVNGLRKKLQESMNQFNELRQKMASEYRETVQRRYYTVTGENPDEAVLDTLISTGQSETFLQKAIQEQGRGQVMDTVMEIQERHEAVKELERNLKELHQVFLDMAVLVESQGAQLDDIESQVNRANSFVRGGAQQLQVARKHQKNTRKWTCF", "modifications": "N-terminal His tag"}, "B2": {"name": "SYR: syntaxin-related protein of N. tabacum, 300 amino acids, SEQ ID NO:2 (protein, listed as Nicotiana tabacum)", "chain": "MNDLFSGSFSRFRADDQSDSHAIEMGDITGGVNLDKFFEDVEAIKDELKGLEKIYSQLQSSHEKSKTLHNAKAVKDLRSNMDNDVSMALKKAKFIKVRLEALDRSNAANRSLPGCGPGSSSDRTRTSVVNGLRKKLQESMNQFNELRQKMASEYRETVQRRYYTVTGENPDEAVLDTLISTGQSETFLQKAIQEQGRGQVMDTVMEIQERHEAVKELERNLKELHQVFLDMAVLVESQGAQLDDIESQVNRANSFVRGGAQQLQVARKHQKNTRKWTCFAIILLLIIILVVVLSIQPWKK"}}, "key": {"[1]": {"system": "inward-rectifying K^+ channels of guard cells", "conditions": "stated as normal; cited from earlier work"}, "[2]": {"system": "anion current of guard cells", "type": "cell-based, N. benthamiana"}, "[3]": {"system": "inward-rectifying K^+ currents of guard cells", "type": "cell-based, V. faba", "conditions": "after 300 s"}, "[4]": {"system": "Xenopus Ca^2+-dependent Cl^− channels", "experiment": "ABA response of Xenopus oocytes injected with N. tabacum poly(A)+ RNA, two-electrode voltage clamp", "type": "cell-based, Xenopus laevis"}, "[5]": {"system": "inward-rectifying K^+ channels of guard cells", "type": "cell-based, N. benthamiana"}, "SYR transcript": {"system": "SYR transcript", "experiment": "Northern analysis of SYR expression in leaves of treated plants"}, "[6]": {"system": "outward-rectifying K^+ channels of guard cells", "experiment": "Guard cell voltage clamp: ABA response of the outward-rectifying K^+ current (IK,out)", "type": "cell-based, Nicotiana"}, "[7]": {"conditions": "cited from earlier work"}, "[8]": {"system": "current endogenous to the oocytes", "experiment": "Uninjected oocytes in 25 mM K^+: effect of channel inhibitors", "conditions": "25 mM K^+ in the bath"}, "[9]": {"system": "oocyte endogenous voltage-dependent K^+ channels", "experiment": "Voltage clamp of oocytes expressing SYR: current characterization and channel inhibitors", "type": "cell-based, Xenopus laevis", "design": "highest maximum value of outward-rectifying current: unit not given here", "conditions": "for reduction of the current in SYR expressing oocytes: toxin in Ringer at Table 3 concentration (TEA 30 mM, niflumic acid 1 mM)"}, "[10]": {"experiment": "Rabbit antisera raised against SYR peptides, tested by Western blot", "type": "in vivo", "conditions": "bleeds after injection", "procedure": "Both, the purchased (SP1) and the purified (SP2) peptides were injected, each into two rabbits at the UKC animal facilities (University of Kent, Canterbury). Blood sera were taken after four weeks and the rabbits were injected a second time, After a second bleed two to three weeks later, the rabbits were injected a third time and killed while collecting blood from the heart two weeks later. SDS—PAGE and Western Blotting\nPrior to hybridization with an antibody, the membrane was blocked with 1×TBS (0.15 M NaCl, 3 mM KCl, 25 mM Tris pH 7.4) and 5% Marvel (milk powder) for 1 h. Antibody hybridization occurred in the same buffer (1×TBS, 5% Marvel) plus 0.1% Tween and 0.1% azide overnight with a rabbit generated antibody with an estimated concentration of 1 ng/μl. The antibody solution was then poured off and stored in the fridge until needed again. The membrane was washed three times with 1×TBS and 0.1% Tween solution. […]"}, "H440 yeast strain": {"system": "H440 yeast strain", "experiment": "Complementation of yeast strain H440 (SSO1 and SSO2 deleted) on galactose deficient medium", "conditions": "H440(SYR) on galactose deficient medium"}}, "note": "“Also recorded” adds a separate entry of the source. Where two headings read alike, the source gives them in different places.", "data": [{"molecule": "CC1=CC(=O)CC(C)(C)[C@@]1(O)/C=C/C(C)=C\\C(=O)O", "note": "[ABA, abscisic acid]", "values": [{"measurement": "inactivation of the inward-rectifying K+ channel current normally caused by ABA", "setting": "[1]", "value": "40-60%"}, {"measurement": "effect of ABA on instantaneous anion current of a control cell", "setting": "[2]", "value": "four-fold increase"}, {"measurement": "stimulation of the Cl^− current amplitude", "setting": "[2]", "value": 3, "unit": "fold"}, {"measurement": "ABA induced increase of instantaneous anion current, mean, normalized to before ABA", "setting": "[2]; n=3", "value": 3.5, "unit": "fold"}, {"measurement": "inhibition of IK,in by ABA", "setting": "[3]", "value": "~80", "unit": "%"}, {"measurement": "time for complete decay of the ABA-stimulated current", "setting": "[4]; 20 μM ABA, mRNA injected oocyte", "value": "≤ 5", "unit": "min"}, {"measurement": "response to a second ABA application", "setting": "[4]; 2 of the 3 ABA responsive cells", "value": "In neither case, a second response was detected"}, {"measurement": "increase of steady-state current evoked by ABA", "setting": "[4]; at +60 mV, mRNA injected oocyte", "value": "> 3", "unit": "μA"}, {"measurement": "number of cells showing the ABA response", "setting": "[4]; of a total of 5 mRNA injected cells tested", "value": 3, "unit": "cells"}, {"measurement": "maximum amplitude of outward-rectifying Cl^− current in response to ABA", "setting": "[4]; oocytes injected with N. tabacum poly(A)+ RNA", "value": 3.1, "unit": "μA"}, {"measurement": "response of water injected oocytes", "setting": "[4]; water injected oocytes, n=8", "value": "did not respond"}, {"measurement": "inhibition of inward K^+ current in response to ABA", "setting": "[5]", "value": "about 40%"}, {"measurement": "inward-rectifier current in ABA", "setting": "[5]", "value": "24 % of the control"}, {"measurement": "mean IK.in ABA normalized for IK.in before ABA", "setting": "[5]; n=5", "value": "46 % of the original current"}, {"measurement": "SYR transcript level in leaves", "setting": "SYR transcript; plants treated by spraying, ABA 20 μM, IAA 30 min", "value": "increased; also recorded: transient induction"}, {"measurement": "time of highest amount of SYR transcript after beginning of treatment", "setting": "SYR transcript; second experiment, total RNA", "value": 30, "unit": "min"}, {"measurement": "stimulation of the outward-rectifier current", "setting": "[6]; 20 M ABA, 10 mM K+ outside", "value": "~2", "unit": "fold"}, {"measurement": "pKa", "setting": "[7]", "value": 4.8}]}, {"molecule": "[Ba+2]", "note": "[Ba^2+]", "values": [{"measurement": "effect on the current of uninjected oocytes, in words", "setting": "[8]", "value": "a time-dependent one arose"}, {"measurement": "effect on the current in SYR expressing oocytes, in words", "setting": "[9]", "value": "conversion of the instantaneous component into the time-dependent component"}, {"measurement": "reversibility of the toxin effect", "setting": "[9]", "value": "Full recovery"}]}, {"molecule": "CC[N+](CC)(CC)CC", "note": "[TEA, tetraethyl ammonium]", "values": [{"measurement": "effect on the current of uninjected oocytes, in words", "setting": "[8]", "value": "invisible"}, {"measurement": "reversibility of the toxin effect", "setting": "[9]; after wash-out", "value": "reversible"}, {"measurement": "reduction of the current in SYR expressing oocytes", "setting": "[9]", "value": 50, "unit": "%"}]}, {"molecule": "O=C(O)c1cccnc1Nc1cccc(C(F)(F)F)c1", "note": "[niflumic acid]", "values": [{"measurement": "effect on the current of uninjected oocytes, in words", "setting": "[8]", "value": "abolished"}, {"measurement": "reversibility of the toxin effect", "setting": "[9]; after wash-out", "value": "fully recovered"}, {"measurement": "reduction of the current in SYR expressing oocytes", "setting": "[9]", "value": "~100", "unit": "%"}]}, {"molecule": "CC(=O)[O-].[K+]", "note": "[potassium acetate]", "values": [{"measurement": "induction of outward Cl^− currents by weak acid control", "setting": "[4]; 20 μM substituted for ABA, mRNA injected oocytes", "value": "no response was observed"}]}, {"molecule": "ω-conotoxin", "values": [{"measurement": "effect on the current in SYR expressing oocytes, in words", "setting": "[9]", "value": "no effect was detected"}]}, {"molecule": "B1", "values": [{"measurement": "recognition of the peptide by rabbit blood sera", "setting": "[10]", "value": "did cross-react with the peptide"}, {"measurement": "ABA sensitivity of inward-rectifying K+ current after Sp2 loading", "setting": "[5]", "value": "complete loss of sensitivity to ABA"}, {"measurement": "ABA sensitivity of outward-rectifying K+ current after Sp2 loading", "setting": "[6]; microelectrodes containing 20 or 100 µM Sp2, 20 µM ABA", "value": "complete loss of sensitivity to ABA"}]}, {"molecule": "B2", "values": [{"measurement": "suppression of the SSO1/SSO2 mutation", "setting": "H440 yeast strain", "value": "could not suppress this mutation"}, {"measurement": "half time of increase in outward-rectifying current after impalement", "setting": "[9]; 50 ng cRNA injected, +60 mV", "value": 20, "unit": "min"}, {"measurement": "highest maximum value of outward-rectifying current", "setting": "[9]; 50 ng cRNA injected, +60 mV", "value": 3}, {"measurement": "reversal potential of the outward-rectifying current", "setting": "[9]; [K^+]o 25 mM", "value": "around −35 mV"}]}]}
